Patent publication US6015877A, “Compounds for inhibition of proteolysis” (President and Fellows of Harvard College, priority 1996, dated 2000)
Values joined by “and” are separate entries in the source; they are usually repeats but may differ in a detail not shown here. Identical values can stand only once. *1 amine or outer side, *2 acyl side, *3 side chain or, on linkers, in order; H or OH if unused. Where a SMILES comes first, the peptide text is derived from it. CO = O=C([*:1])[*:2]

Columns and labels:
[1] = test system: isoprenylated protein endoprotease; test: Inhibition of the solubilized / partially purified enzyme by non-halomethyl ketone inhibitors; assay type: biochemical, bovine
[2] = biological target: T1, cysteine protease ICE (interleukin-1β converting enzyme) (Homo sapiens, UniProt P29466); details: cited from earlier work
T1 sequence (P29466 120-297 limits assumed): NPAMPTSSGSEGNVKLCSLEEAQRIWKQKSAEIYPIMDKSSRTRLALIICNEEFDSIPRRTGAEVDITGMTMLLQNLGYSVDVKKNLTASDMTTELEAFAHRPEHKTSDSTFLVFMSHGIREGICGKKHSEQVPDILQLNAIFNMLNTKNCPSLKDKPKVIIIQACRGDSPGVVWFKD
T1 sequence (P29466 317-404 limits assumed): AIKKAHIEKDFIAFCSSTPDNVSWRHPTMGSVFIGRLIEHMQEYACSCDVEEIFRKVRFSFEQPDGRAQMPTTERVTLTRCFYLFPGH

[3] = biological target: T2, cysteine protease apopain (Homo sapiens, UniProt P42574); details: cited from earlier work
T2 sequence (P42574 29-175 limits assumed): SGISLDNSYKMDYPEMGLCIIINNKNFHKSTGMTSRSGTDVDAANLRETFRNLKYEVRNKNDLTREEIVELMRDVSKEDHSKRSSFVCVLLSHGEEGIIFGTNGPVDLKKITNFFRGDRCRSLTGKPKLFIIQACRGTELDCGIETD
T2 sequence (P42574 176-277 limits assumed): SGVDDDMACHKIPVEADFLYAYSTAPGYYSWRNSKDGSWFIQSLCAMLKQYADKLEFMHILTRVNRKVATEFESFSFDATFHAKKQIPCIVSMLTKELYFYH

[4] = test system: membrane-bound isoprenylated protein endoprotease; details: 0.5 mM, membrane-bound enzyme; cited from earlier work

SMILES: CC(C)C[C@H](NC(=O)[C@H]1O[C@@H]1C(=O)O)C(=O)NCCCCN=C(N)N (relative stereo) [E-64, N-[N-(L-3-trans-carboxyoxiran-2-carbonyl)-L-leucyl]agmatine]
- inhibition of the endoprotease (in words) ([1]; 0.5 mM): insensitive
- enzyme activity (%) detergent extract ([1]; inhibitor 0.11 mM, control 100): 113 ± 0%
- enzyme activity (%) partially purified ([1]; inhibitor 0.5 mM, control 100): 103 ± 4%
- inhibition of ICE (in words) [2]: insensitive
- inhibition of apopain (in words) [3]: not

SMILES: NC(=O)CI [IAA, iodoacetamide]
- inhibition of the endoprotease (in words) ([1]; 0.4 mM): insensitive
- inhibition of ICE (in words) [2]: inactivated
- inhibition of apopain (in words) [3]: inhibited

SMILES: O=C(O)c1cc[c]([Hg][Cl])cc1 [PCMB, p-chloromercuribenzoate]
- partially purified enzyme activity inhibited ([1]; 5 μM, partially purified enzyme): 67%
- enzyme activity (%) detergent extract ([1]; 0.5 mM PCMB, then +5 mM DTT (regenerated activity)): 44 ± 4% and 44%
- regeneration of the inhibited activity after extensive dialysis and dilution (in words) ([1]; detergent extract inhibited by 0.5 mM PCMB): no regeneration of the inhibited activity was observed
- enzyme activity (%) partially purified ([1]; inhibitor 5 μm, control 100): 33 ± 3%
- inhibition of ICE (in words) [2]: inactivated
- inhibition of the endoprotease [4]: 41%

SMILES: CC(C)[C@H](NC(=O)[C@H](CCCNC(=N)N)NC(=O)N[C@@H](Cc1ccccc1)C(=O)O)C(=O)N[C@H](C=O)CCCNC(=N)N [antipain] ({Phe-CO}-Arg-Val-Arg-aldehyde)
- inhibition of ICE (in words) [2]: insensitive
